Tests used:
Conditions in all cases: 48 h
NOMO1 [1] = assay: cell viability relative to DMSO control; higher = less cytotoxic
How it was run: (§1)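 Three leukemia lines were tested: NOMO1 and SEM at 500 cells/well and P12-Ichikawa at 1000 cells/well. Each was adapted for at least four passages in each medium and seeded in 5 μl in 1536-well plates, and library compounds in DMSO were pin-dosed from 47 μM to 0.79 nM in 11 threefold steps. After 48 h at 37°C, CellTiter-Glo One luminescence was read. Viability is a percentage relative to DMSO wells on each plate, with cell-free wells as background.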

P12-Ichikawa [2] = assay: as above
How it was run: as §1

SEM cells [3] = assay: as above
How it was run: as §1

NOMO1 [4] = assay: AUC of viability dose-response curve (% viability x log10 dose units); higher = less sensitive
How it was run: (§2)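 Leukemia cells adapted to each medium (500 or 1000 cells/well, 1536-well plates) were exposed to library compounds in DMSO for 48 h at 37°C at 11 threefold doses, 47 μM to 0.79 nM. Luminescence by CellTiter-Glo One was normalised per plate to DMSO and cell-free wells, then fitted with a four-parameter log-logistic curve on log10 dose. Curves above full viability were scaled and quality-control failures removed before area under the curve was integrated by trapezoidal rule.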

P12-Ichikawa [5] = assay: as above
How it was run: as §2

SEM cells [6] = assay: as above
How it was run: as §2

CN1CCN(CCCN2c3ccccc3Sc3ccc(C(F)(F)F)cc32)CC1
cell viability [%]
Conditions	NOMO1 [1]	P12-Ichikawa [2]	SEM cells [3]
HPLM + 10% dialyzed FBS, 0.000781 µM	105	100	74.1
HPLM + 10% dialyzed FBS, 0.00234 µM	106	105	85.4
HPLM + 10% dialyzed FBS, 0.00702 µM	112	105	88.1
HPLM + 10% dialyzed FBS, 0.0211 µM	117	108	103
HPLM + 10% dialyzed FBS, 0.0632 µM	108	106	97.3
HPLM + 10% dialyzed FBS, 0.19 µM	115	111	101
HPLM + 10% dialyzed FBS, 0.569 µM	125	117	106
HPLM + 10% dialyzed FBS, 1.71 µM	95.4	119	105
HPLM + 10% dialyzed FBS, 5.12 µM	32.9	111	107
HPLM + 10% dialyzed FBS, 15.4 µM	20.6	42	102
HPLM + 10% dialyzed FBS, 46.1 µM	24.2	12.4	106
RPMI 5 mM glucose + 10% FBS, 0.000781 µM	100	101	83.1
RPMI 5 mM glucose + 10% FBS, 0.00234 µM	104	108	91.4
RPMI 5 mM glucose + 10% FBS, 0.00702 µM	108	109	90.7
RPMI 5 mM glucose + 10% FBS, 0.0211 µM	101	109	93.9
RPMI 5 mM glucose + 10% FBS, 0.0632 µM	96.2	119	94.4
RPMI 5 mM glucose + 10% FBS, 0.19 µM	98.5	119	100
RPMI 5 mM glucose + 10% FBS, 0.569 µM	106	113	101
RPMI 5 mM glucose + 10% FBS, 1.71 µM	61.5	116	99.4
RPMI 5 mM glucose + 10% FBS, 5.12 µM	18.7	112	98.6
RPMI 5 mM glucose + 10% FBS, 15.4 µM	16.7	34.1	105
RPMI 5 mM glucose + 10% FBS, 46.1 µM	11.3	13.8	101
RPMI 5 mM glucose + 10% dialyzed FBS, 0.000781 µM	99.6	94.8	90.6
RPMI 5 mM glucose + 10% dialyzed FBS, 0.00234 µM	107	105	94.2
RPMI 5 mM glucose + 10% dialyzed FBS, 0.00702 µM	105	99.6	89.9
RPMI 5 mM glucose + 10% dialyzed FBS, 0.0211 µM	108	104	94.4
RPMI 5 mM glucose + 10% dialyzed FBS, 0.0632 µM	119	106	102
RPMI 5 mM glucose + 10% dialyzed FBS, 0.19 µM	113	105	102
RPMI 5 mM glucose + 10% dialyzed FBS, 0.569 µM	103	112	92.7
RPMI 5 mM glucose + 10% dialyzed FBS, 1.71 µM	104	123	104
RPMI 5 mM glucose + 10% dialyzed FBS, 5.12 µM	27.2	115	107
RPMI 5 mM glucose + 10% dialyzed FBS, 15.4 µM	25.6	93.8	112
RPMI 5 mM glucose + 10% dialyzed FBS, 46.1 µM	21	39.4	86.8

AUC of viability dose-response curve
Conditions	NOMO1 [4]	P12-Ichikawa [5]	SEM cells [6]
HPLM + 10% dialyzed FBS	379	426	447
RPMI 5 mM glucose + 10% FBS	357	423	451
RPMI 5 mM glucose + 10% dialyzed FBS	384	456	463

N#C[C@H](O[C@@H]1O[C@H](CO[C@@H]2O[C@H](CO)[C@@H](O)[C@H](O)[C@H]2O)[C@@H](O)[C@H](O)[C@H]1O)c1ccccc1
cell viability [%]
Conditions	NOMO1 [1]	P12-Ichikawa [2]	SEM cells [3]
HPLM + 10% dialyzed FBS, 0.000781 µM	108	110	114
HPLM + 10% dialyzed FBS, 0.00234 µM	96.9	106	103
HPLM + 10% dialyzed FBS, 0.00702 µM	120	108	113
HPLM + 10% dialyzed FBS, 0.0211 µM	115	102	127
HPLM + 10% dialyzed FBS, 0.0632 µM	99.1	103	115
HPLM + 10% dialyzed FBS, 0.19 µM	102	96.6	118
HPLM + 10% dialyzed FBS, 0.569 µM	100	99.5	108
HPLM + 10% dialyzed FBS, 1.71 µM	96.6	97.7	102
HPLM + 10% dialyzed FBS, 5.12 µM	103	90.8	110
HPLM + 10% dialyzed FBS, 15.4 µM	95.9	91.7	114
HPLM + 10% dialyzed FBS, 46.1 µM	19.5	55.4	41.8
RPMI 5 mM glucose + 10% FBS, 0.000781 µM	90.5	99.5	106
RPMI 5 mM glucose + 10% FBS, 0.00234 µM	117	98.5	98.3
RPMI 5 mM glucose + 10% FBS, 0.00702 µM	104	92.5	120
RPMI 5 mM glucose + 10% FBS, 0.0211 µM	89.4	97.5	112
RPMI 5 mM glucose + 10% FBS, 0.0632 µM	97.3	104	99.8
RPMI 5 mM glucose + 10% FBS, 0.19 µM	93.5	99.5	102
RPMI 5 mM glucose + 10% FBS, 0.569 µM	96.3	94.2	112
RPMI 5 mM glucose + 10% FBS, 1.71 µM	84.5	88.4	94.8
RPMI 5 mM glucose + 10% FBS, 5.12 µM	93.4	89.9	94.5
RPMI 5 mM glucose + 10% FBS, 15.4 µM	85.1	94.5	95.7
RPMI 5 mM glucose + 10% FBS, 46.1 µM	16	48.5	20.6
RPMI 5 mM glucose + 10% dialyzed FBS, 0.000781 µM	106	98.6	97.4
RPMI 5 mM glucose + 10% dialyzed FBS, 0.00234 µM	110	96.2	104
RPMI 5 mM glucose + 10% dialyzed FBS, 0.00702 µM	103	95.6	97.4
RPMI 5 mM glucose + 10% dialyzed FBS, 0.0211 µM	115	101	122
RPMI 5 mM glucose + 10% dialyzed FBS, 0.0632 µM	109	97.6	99
RPMI 5 mM glucose + 10% dialyzed FBS, 0.19 µM	96.2	86.1	99.7
RPMI 5 mM glucose + 10% dialyzed FBS, 0.569 µM	101	90.6	97.5
RPMI 5 mM glucose + 10% dialyzed FBS, 1.71 µM	97.6	89	101
RPMI 5 mM glucose + 10% dialyzed FBS, 5.12 µM	98.1	82.9	91.4
RPMI 5 mM glucose + 10% dialyzed FBS, 15.4 µM	88.8	87.3	92.2
RPMI 5 mM glucose + 10% dialyzed FBS, 46.1 µM	9.62	31.8	15.3

AUC of viability dose-response curve
Conditions	NOMO1 [4]	P12-Ichikawa [5]	SEM cells [6]
HPLM + 10% dialyzed FBS	454	454	462
RPMI 5 mM glucose + 10% FBS	435	446	452
RPMI 5 mM glucose + 10% dialyzed FBS	448	427	452
